Assay results taken from patent US8722663B2, “Di-substituted pyridine derivatives as anticancers” (Otsuka Pharmaceutical Co., Ltd., priority 2010, dated 2014).
Counter-ions that a name gives are not always drawn.

Tests used:
[1] = tested on: human breast cancer cell line (MDA-MB-468); assay: Growth inhibition of MDA-MB-468 cells, sulforhodamine B method; type: cell-based; settings: 120 h, 5 days with test compound
Protocol: Growth inhibition of a human breast cancer cell line (MDA-MB-468) was determined by the sulforhodamine B method based on the method of Skehan P. et al. (J Natl Cancer Inst. 1990 Jul. 4; 82(13): 1107-12). In the study, MDA-MB-468 cells were seeded on DMEM medium containing 10% fetal bovine serum in a 96-well microplate. After 24-h incubation at 37° C. in the presence of 5% carbon dioxide, the test compound was added and the cells were incubated for another 5 days. After incubation, a trichloroacetic acid solution was added to yield the final concentration of 10% and the cells were left to stand at 4° C. for 1 hour to fix. Then, the cells were washed with water to remove the medium and trichloroacetic acid and dried in the air. The dried cells were stored at 4° C. until they were stained with sulforhodamine B. To each well, 1% acetic acid solution containing 0.4% sulforhodamine B was added and left to stand for 20 to 30 minutes at room temperature. After discarding the supernatant, each well was washed with 1% acetic acid solution, and 10 mM Tris([…]) solution was added while stirring to elute the dye taken into the cells. Then, the optical density was determined at the measurement wavelength of 492 nm and the reference wavelength of 690 nm, and the difference was calculated. The cell growth activity in each well was defined as the value determined by subtracting the OD in the control well not containing cells (the difference in absorbance between 492 nm and 690 nm) from that in the test well.
(§1) The 50% inhibitory concentration (IC50 (nM)) of the test compound was determined by comparing the cell growth activity in the well containing the test compound with that of the control not containing the test compound.

[2] = tested on: human prostate (adenocarcinoma) cell line (PC-3); assay: Growth inhibition of PC-3 cells, WST-8 assay; type: cell-based; settings: 120 h, 5 days with test compound
Protocol: (§2) The growth inhibition on a bicalutamide resistant human prostate cancer cell line established from LNCaP.FGC (LNCaP-Bic) (Hobisch A, et al. Prostate. 2006; 66(4):413-20.) was determined by a WST-8 assay according to the method of Singh A K, et al. (Cancer Lett. 1996 Oct. 1; 107(1): 109-15.). In this method, LNCaP-Bic cells were seeded in RPMI 1640 medium containing 10% fetal bovine serum in a 96-well microplate and incubated at 37° C. for 24 hours in the presence of 5% carbon dioxide. Then, the test compound was added and the cells were incubated for another 5 days. After incubation, a 15-μL volume of WST-8 (2-(2-methoxy-4-nitrophenyl)-3-(4-nitrophenyl)-5-(2,4-[…])-2H-tetrazolium, monosodium salt) was added. After the incubation for the time, the color reaction was stopped by adding 15 μL of 1% SDS (sodium dodecyl sulfate) solution and the optical density was determined at the measurement wavelength of 450 nm and the reference wavelength of 630 nm, and the difference was calculated. The cell growth activity in each well was defined as the value determined by subtracting the OD in the control well not containing cells (the difference in absorbance between 450 nm and 630 nm) from that in the test well.
as §1
The growth inhibition on a human prostate (adenocarcinoma) cell line (PC-3) (van Bokhoven A, et al. Prostate. 2003; 57(3):205-25.) was also determined by the above method.

[3] = tested on: human prostate (carcinoma) cell line (DU 145); assay: Growth inhibition of DU 145 cells, WST-8 assay; type: cell-based; settings: 120 h, 5 days with test compound
Protocol: as §2, §1
The growth inhibition on a human prostate (carcinoma) cell line (DU 145) (van Bokhoven A, et al. Prostate. 2003; 57(3):205-25.) was also determined by the above method.

[4] = tested on: human prostate (carcinoma) cell line (LNCaP.FGC); assay: Growth inhibition of LNCaP.FGC cells, WST-8 assay; type: cell-based; settings: 120 h, 5 days with test compound
Protocol: as §2, §1
The growth inhibition on a human prostate (carcinoma) cell line (LNCaP.FGC) (van Bokhoven A, et al. Prostate. 2003; 57(3):205-25.) was also determined by the above method.

[5] = tested on: human prostate (adenocarcinoma) cell line (VcaP); assay: Growth inhibition of VcaP cells, WST-8 assay; type: cell-based; settings: 120 h, 5 days with test compound
Protocol: as §2, §1
The growth inhibition on a human prostate (adenocarcinoma) cell line (VcaP) (Korenchuk S, et al. In Vivo. 2001; 15(2):163-8.) was also determined by the above method.

[6] = tested on: bicalutamide resistant human prostate cancer cell line established from LNCaP.FGC (LNCaP-Bic); assay: Growth inhibition of LNCaP-Bic cells, WST-8 assay; type: cell-based; settings: 120 h, 5 days with test compound
Protocol: as §2, §1

Compound | melting point | IC50 [1] | also measured
C/C(=C\c1cc(C)c(Oc2ccc(OCc3ccc(C)cc3)cn2)c(Cl)c1)C(=O)N1CCN(Cc2ccc(CCOc3ccc(C)cc3)cc2)CC1.Cl [Example 411, (E)-3-[3-Chloro-5-methyl-4-({5-[(4-methylbenzyl)oxy]pyridin-2-yl}oxy)phenyl]-2-methyl-1-(4-{4-[2-(4-methylphenoxy)ethyl]benzyl}piperazin-1-yl)prop-2-en-1-one hydrochloride] | 134.7 to 136.4 °C | < 0.01 µM | –
Cc1ccc(COc2ccc(Oc3c(C)cc(/C=C/C(=O)N4CCN(Cc5ccc(CCOc6ccc(N(C)C)cc6)cc5)CC4)cc3Cl)nc2)cc1 [Example 321, (E)-3-[3-chloro-5-methyl-4-({5-[(4-methylbenzyl)oxy]-pyridin-2-yl}oxy)phenyl]-1-[4-(4-{2-[4-(dimethylamino)phenoxy]ethyl}benzyl)piperazin-1-yl]prop-2-en-1-one] | – | < 0.01 µM | –
Cc1ccc(OCCc2ccc(CN3CCN(C(=O)/C=C/c4cc(C)c(Oc5ccc(OCc6cccc(F)c6F)cn5)c(Cl)c4)CC3)cc2)cc1 [Example 487, (E)-3-[3-Chloro-4-({5-[(2,3-difluorobenzyl)oxy]pyridin-2-yl}oxy)-5-methylphenyl]-1-(4-{4-[2-(4-methylphenoxy)ethyl]benzyl}piperazin-1-yl)prop-2-en-1-one hydrochloride] | – | < 0.01 µM | –
Cc1cc(/C=C/C(=O)N2CCN(Cc3ccc(CCOc4ccc(F)cc4)cc3)CC2)cc(Cl)c1Oc1ccc(OCc2cccc(Cl)c2F)cn1.Cl [Example 485, (E)-3-[3-Chloro-4-({5-[(3-chloro-2-fluorobenzyl)oxy]pyridin-2-yl}oxy)-5-methylphenyl]-1-(4-{4-[2-(4-fluorophenoxy)ethyl]benzyl}piperazin-1-yl)prop-2-en-1-one hydrochloride] | 228.9 to 229.4 °C | < 0.01 µM | –
Cc1ccc(COc2ccc(Oc3c(C)cc(/C=C/C(=O)N4CCN(Cc5ccc(C)cc5)CC4)cc3Cl)nc2)cc1 [Example 359, (E)-3-[3-Chloro-5-methyl-4-({5-[(4-methylbenzyl)oxy]pyridin-2-yl}oxy)phenyl]-1-[4-(4-methylbenzyl)piperazin-1-yl]prop-2-en-1-one] | – | < 0.01 µM | –
Cc1cc(/C=C/C(=O)N2CCN(Cc3ccc(CCOc4ccc(C#N)cc4)cc3)CC2)cc(Cl)c1Oc1ccc(OCc2ccc(C(F)(F)F)cc2)cn1 [Example 289, 4-{2-[4-({4-[(E)-3-{3-chloro-5-methyl-4-[(5-{[4-(trifluoromethyl)benzyl]oxy}pyridin-2-yl)oxy]phenyl}prop-2-enoyl]piperazin-1-yl}methyl)phenyl]ethoxy}benzonitrile] | – | < 0.01 µM | –
Cc1ccc(COc2ccc(Oc3c(C)cc(/C=C/C(=O)N4CCN(Cc5ccc(CC(C)Oc6ccc(C)cc6)cc5)CC4)cc3Cl)nc2)cc1 (stereo not shown) [Example 534, (E)-3-[3-Chloro-5-methyl-4-({5-[(4-methylbenzyl)oxy]pyridin-2-yl}oxy)phenyl]-1-(4-{4-[2-(4-methylphenoxy)propyl]benzyl}piperazin-1-yl)prop-2-en-1-one hydrochloride] | – | < 0.01 µM | –
Cc1ccc(COc2ccc(Oc3c(C)cc(/C=C/C(=O)N4CCCN(Cc5ccc(CCOc6ccc(C(C)C)cc6)cc5)CC4)cc3Cl)nc2)cc1 [Example 123, (E)-3-[3-Chloro-5-methyl-4-({5-[(4-methylbenzyl)oxy]pyridin-2-yl}oxy)phenyl]-1-[4-(4-{2-[4-(propan-2-yl)phenoxy]ethyl}benzyl)-1,4-diazepan-1-yl]prop-2-en-1-one] | – | < 0.01 µM | –
Cc1cc(/C=C/C(=O)N2CCN(Cc3ccc(CCOc4ccc(C(F)(F)F)cn4)cc3)CC2)cc(Cl)c1Oc1ccc(OCc2ccc(C#N)cc2)cn1.Cl [Example 613, 4-{[(6-{2-Chloro-6-methyl-4-[(E)-3-oxo-3-{4-[4-(2-{[5-(trifluoromethyl)pyridin-2-yl]oxy}-ethyl)benzyl]piperazin-1-yl}prop-1-en-1-yl]phenoxy}pyridin-3-yl)oxy]methyl}benzonitrile hydrochloride] | 193.7 to 194.2 °C | – | IC50 [2]: < 10 nM; IC50 [3]: < 10 nM; IC50 [4]: < 10 nM; IC50 [5]: < 10 nM; IC50 [6]: < 10 nM
Cc1ccc(COc2ccc(Oc3c(C)cc(/C=C/C(=O)N4CCN(Cc5ccc(CCOc6ccc(Cl)cc6)cc5)CC4)cc3Cl)nc2)cc1F.Cl [Example 427, (E)-3-[3-Chloro-4-({5-[(3-fluoro-4-methylbenzyl)oxy]pyridin-2-yl}oxy)-5-methylphenyl]-1-(4-{4-[2-(4-chlorophenoxy)ethyl]benzyl}piperazin-1-yl)prop-2-en-1-one hydrochloride] | 224.7 to 224.8 °C | – | IC50 [2]: < 10 nM; IC50 [3]: < 10 nM; IC50 [4]: < 10 nM; IC50 [5]: < 10 nM; IC50 [6]: < 10 nM

Second part, led by results:

melting point | IC50 [1] | Compound | also measured
211.3 to 211.7 °C | < 0.01 µM | C/C(=C\C(=O)N1CCN(Cc2ccc(CCOc3ccc(F)cc3)cc2)CC1)c1cc(C)c(Oc2ccc(OCc3ccc(C)cc3)cn2)c(Cl)c1.O=C(O)C(=O)O [Example 746, (E)-3-[3-Chloro-5-methyl-4-({5-[(4-methylbenzyl)oxy]pyridin-2-yl}oxy)phenyl]-1-(4-{4-[2-(4-fluorophenoxy)ethyl]benzyl}piperazin-1-yl)but-2-en-1-one ethanedioate] | –
166.2 to 166.7 °C | < 0.01 µM | Cc1cc(/C=C/C(=O)N2CCN(Cc3ccc(CCCOc4ccc(F)cc4)cc3)CC2)cc(Cl)c1Oc1ccc(OCc2ccc(C#N)cc2)cn1.Cl [Example 618, 4-{[(6-{2-Chloro-4-[(E)-3-(4-{4-[3-(4-fluorophenoxy)propyl]benzyl}piperazin-1-yl)-3-oxoprop-1-en-1-yl]-6-methylphenoxy}pyridin-3-yl)oxy]methyl}benzonitrile hydrochloride] | –
– | < 0.01 µM | COc1ccc(COc2ccc(Oc3c(C)cc(/C=C/C(=O)N4CCN(Cc5ccc(CC(C)Oc6ccc(F)cc6)cc5)CC4)cc3C)nc2)cc1 (stereo not shown) [Example 725, (E)-1-(4-{4-[2-(4-Fluorophenoxy)propyl]benzyl}piperazin-1-yl)-3-[4-({5-[(4-methoxybenzyl)-oxy]pyridin-2-yl}oxy)-3,5-dimethylphenyl]prop-2-en-1-one hydrobromide] | –
223.9 to 224.5 °C | < 0.01 µM | Cc1ccc(CN2CCN(C(=O)/C=C/c3cc(C)c(Oc4ccc(OCc5ccc(F)cc5)cn4)c(Cl)c3)CC2)cc1.Cl [Example 779, (E)-3-[3-Chloro-4-({5-[(4-fluorobenzyl)oxy]pyridin-2-yl}oxy)-5-methylphenyl]-1-[4-(4-methylbenzyl)piperazin-1-yl]prop-2-en-1-one hydrochloride] | –
– | < 0.01 µM | Cc1cc(/C=C/C(=O)N2CCN(Cc3ccc(COc4ccc(C(C)C)cc4)cc3)CC2)cc(C)c1Oc1ccc(OCc2cscn2)cn1 [Example 648, (E)-3-(3,5-Dimethyl-4-{[5-(1,3-thiazol-4-ylmethoxy)pyridin-2-yl]oxy}phenyl)-1-[4-(4-{[4-(propan-2-yl)phenoxy]methyl}benzyl)piperazin-1-yl]prop-2-en-1-one hydrochloride] | –
– | < 0.01 µM | Cc1cc(/C=C/C(=O)N2CCN(Cc3ccc(CCOc4ccc(C(F)(F)F)cc4)cc3F)CC2)cc(C)c1Oc1ccc(OCc2ccc(C#N)cc2)cn1 [Example 616, 4-({[6-(4-{(E)-3-[4-(2-Fluoro-4-{2-[4-(trifluoromethyl)phenoxy]ethyl}benzyl)piperazin-1-yl]-3-oxoprop-1-en-1-yl}-2,6-dimethylphenoxy)pyridin-3-yl]oxy}methyl)benzonitrile hydrochloride] | –
